Results on four compounds are retold here after PMC12032720, “Pharmacological assessment of the extract and a novel compound of Bacillus velezensis DM derived from the rhizosphere of Datura metel L. with microbial molecular screening” (BMC Complementary Medicine and Therapies, 2025).

Broadly, the IC50 is the concentration needed to halve the response being measured.

≈ marks a conversion by molar mass, not a printed value. Where “and” joins values, the source holds several entries; their conditions need not be identical. Identical values can stand only once. Like-named read-outs stand apart in the source and are kept apart here.

One experiment concerns HCT-116. Description: MTT cytotoxicity on colon cancer cell line HCT-116. Conditions: Homo sapiens, mean ± SD. It is filed as cell-based. As for the experimental part: (§1) Diverse human cancer cell lines: liver cancer cells (HepG2), colon cancer cell line (HCT-116), and breast cancer cell line (MCF-7) were brought from VACSERA Tissue Culture Unit (Giza, Egypt). RPMI-1640 media enhanced with 10% fetal bovine serum and […] gentamycin were employed to culture the cells. The cells were incubated at 37 °C with 5% CO2. To determine the cytotoxic activity, cells were treated with various doses (0–100 µg/ mL) of B. velezensis DM extract or Doxorubicin, and their viability compared to untreated controls was assessed. Compound (1) cytotoxic potential was evaluated against HCT-116 as well as normal epithelial cells (THLE2) to calculate the selectivity index (SI) as formerly depicted.
(§2) IC50 was calculated by the Graph Pad Prism (version 8, San Diego, CA, USA) (n = 3 replicates). Data are presented as mean ± SD.

The next experiment has as its system THLE-2 normal cell line. Description: Cytotoxicity on normal epithelial cells THLE-2 (selectivity index). It is filed as cell-based. The settings on record: for IC50: Homo sapiens, THLE-2, normal cell line, mean ± SD; for SI (selectivity index): THLE-2 versus HCT-116. As for the experimental part:
as §1, §2

A short description of a further experiment: Antioxidant DPPH assay. Conditions: mean ± SD. As for the experimental part: Antioxidant DPPH assay: To inspect the antioxidant potential of B. velezensis DM extract, a methodology reported by Nahar et al. was used compared to Trolox. IC50 was calculated by the Graph Pad Prism (version 8, San Diego, CA, USA) (n = 3 replicates). Data are presented as mean ± SD.

The next experiment is described as follows: Antioxidant ABTS assay. Conditions: mean ± SD. How it is done:
Antioxidant ABTS assay: the capacity of B. velezensis DM extract to scavenge ABTS radical cations was assessed compared to Quercetin at a range of concentrations, including 300, 150, 75, 25, and 10 µg/ mL [38].
as §2

Setting [1] is: compound (1) experiment, read-out: IC50 HCT-116 (Table 4).

As for `CNC=C(CC(O)C(O)CO)NC` (stereo not drawn) [Compound (1), 5,6-di(methylamino)hex-5-ene-1,2,3-triol], the half-inhibitory concentration (IC50) in the experiment on HCT-116 (setting [1]) was determined as 27 ± 1.85 µg/mL (≈ 142 µM). In the experiment with THLE-2 normal cell line, the IC50 turned out to be 68.7 ± 3.34 µg/mL (≈ 361 µM); the “SI (selectivity index)” value is 2.5 and 2.54.
For `Cc1c(C)c2c(c(C)c1O)CCC(C)(C(=O)O)O2` (stereo not drawn) [Trolox], in “Antioxidant DPPH assay”, the “DPPH (IC50)” value is reported as 113.31 ± 4.2 µg/mL.
For the compound `O=c1c(O)c(-c2ccc(O)c(O)c2)oc2cc(O)cc(O)c12` [Quercetin], the “ABTS (IC50)” value in “Antioxidant ABTS assay” is listed as 42.13 ± 1.92 µg/mL.
As for `COc1cccc2c1C(=O)c1c(O)c3c(c(O)c1C2=O)C[C@@](O)(C(=O)CO)C[C@@H]3O[C@H]1C[C@H](N)[C@H](O)[C@H](C)O1` [Doxorubicin (DOX), Doxorubicin], the concentration for half-maximal inhibition (IC50) in the experiment with HCT-116 (MTT, 0–100 µg/mL, n = 3, read-out: IC50 HCT-116 (Table 3)) came out at 4.82 ± 0.18 µg/mL (≈ 8.87 µM); with HCT-116 (setting [1]) it was 11.7 ± 0.4 µg/mL (≈ 21.5 µM); with THLE-2 normal cell line, 17.4 ± 1.25 µg/mL (≈ 32.1 µM). Also, in the experiment on THLE-2 normal cell line, the “SI (selectivity index)” value amounted to 1.49.
